Patent US9540391B2, “Isomannide derivatives as inhibitors of soluble epoxide hydrolase” (SANOFI, priority 2013, dated 2017)
pIC50: −log10 of the molar value. Structures can show the parent of a compound that is named as a salt.

Target: T1, recombinant sEH (Homo sapiens, UniProt P34913)
T1 construct: made in house; host or cells: Sf9 insect cells
T1 sequence (P34913 1-555): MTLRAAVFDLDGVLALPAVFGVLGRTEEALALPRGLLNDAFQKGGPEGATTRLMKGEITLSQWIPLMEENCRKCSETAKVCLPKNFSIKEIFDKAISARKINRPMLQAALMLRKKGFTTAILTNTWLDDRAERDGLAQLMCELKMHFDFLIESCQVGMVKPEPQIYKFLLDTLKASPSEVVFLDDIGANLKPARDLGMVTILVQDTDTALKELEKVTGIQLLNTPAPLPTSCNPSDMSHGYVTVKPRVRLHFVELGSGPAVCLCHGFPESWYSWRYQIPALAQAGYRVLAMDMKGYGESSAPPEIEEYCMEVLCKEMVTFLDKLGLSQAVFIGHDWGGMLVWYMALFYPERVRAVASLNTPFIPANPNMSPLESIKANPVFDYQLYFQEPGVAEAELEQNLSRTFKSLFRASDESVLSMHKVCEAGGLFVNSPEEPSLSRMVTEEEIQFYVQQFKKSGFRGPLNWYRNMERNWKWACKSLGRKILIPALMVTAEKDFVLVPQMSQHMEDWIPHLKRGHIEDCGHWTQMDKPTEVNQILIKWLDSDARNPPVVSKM
Assay: biochemical screening assay for inhibition of soluble epoxide hydrolase (fluorometric, Phome substrate)
Method in brief: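 Human sEH from Sf9 cells (2 nM final) was pre-incubated 15 min at 30 °C with compound (0.0001–10 μM), then reacted 60 min at 30 °C with 5 μM Phome in 25 mM Hepes/0.01% albumin. Fluorescence of released 6-methoxy-2-naphthaldehyde was read before substrate and at end; IC50 from % inhibition.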

Row | pIC50 | SMILES
1 | 7.82 | O=C(Nc1ccc(OC(F)(F)F)cc1)N[C@H]1CO[C@H]2[C@@H]1OC[C@@H]2C#Cc1ccsc1 [Example 315, 1-((3S,3aR,6S,6aR)-6-Thiophen-3-ylethynyl-hexahydro-furo[3,2-b]furan-3-yl)-3-(4-trifluoromethoxy-phenyl)-urea]
2 | 7.43 | Cc1cccc(CNC(=O)NC2COC3C(C#Cc4ccccc4)COC23)c1 [Example 291, 1-(3-Methyl-benzyl)-3-[(3S,3aR,6R)-6-((S)-phenylethynyl)-hexahydro-furo[3,2-b]furan-3-yl]-urea]
3 | 7.89 | O=C(Nc1ccc(Cl)c(Cl)c1)NC1COC2C(C#Cc3ccccc3)COC12 [Example 290, 1-(3,4-Dichloro-phenyl)-3-[(3S,3aR,6R)-6-((S)-phenylethynyl)-hexahydro-furo[3,2-b]furan-3-yl]-urea]
4 | 6.91 | O=C(Nc1cccc(F)c1)N[C@H]1CO[C@H]2[C@@H]1OC[C@@H]2C#Cc1ccccc1 [Example 294, 1-(3-Fluoro-phenyl)-3-((3S,3aR,6S,6aR)-6-phenylethynyl-hexahydro-furo[3,2-b]furan-3-yl)-urea]
5 | 5.61 | O=C(N[C@H]1CO[C@H]2[C@@H]1OC[C@@H]2Oc1ccc(F)cc1)N1CCC(F)(F)CC1 [Example 94, 4,4-difluoro-piperidine-1-carboxylic acid [(3S,3aR,6S,6aS)-6-(4-fluoro-phenoxy)-hexahydro-furo[3,2-b]furan-3-yl]-amide]
6 | 7.29 | Cc1cc(C)nc(S[C@H]2CO[C@H]3[C@@H]2OC[C@@H]3NC(=O)NC2CCCCC2)n1 [Example 47, 1-Cyclohexyl-3-[(3S,3aR,6S,6aS)-6-(4,6-dimethyl-pyrimidin-2-ylsulfanyl)-hexahydro-furo[3,2-b]furan-3-yl]-urea]
7 | 6.47 | N#CC1COC2C(NC(=O)Nc3ccc(OCc4ccccc4)cc3)COC12 (stereo not shown) [Example 382]
8 | 6.09 | Cc1ncccc1O[C@H]1CO[C@H]2[C@@H]1OC[C@@H]2NC(=O)NCC1(C)CCCO1 (stereo partly drawn) [Example 209, 1-[(3S,3aR,6S,6aS)-6-(2-Methyl-pyridin-3-yloxy)-hexahydro-furo[3,2-b]furan-3-yl]-3-(2-methyl-tetrahydro-furan-2-ylmethyl)-urea]
9 | 7.07 | Cc1nnc(S[C@H]2CO[C@H]3[C@@H]2OC[C@@H]3NC(=O)NC2CCCCC2)o1 [Example 43, 1-Cyclohexyl-3-[(3S,3aR,6S,6aS)-6-(5-methyl-[1,3,4]oxadiazol-2-ylsulfanyl)-hexahydro-furo[3,2-b]furan-3-yl]-urea]
10 | 5.84 | Cc1ncccc1O[C@H]1CO[C@H]2[C@@H]1OC[C@@H]2NC(=O)NCC1CCCO1 (stereo partly drawn) [Example 176, 1-[(3S,3aR,6S,6aS)-6-(2-Methyl-pyridin-3-yloxy)-hexahydro-furo[3,2-b]furan-3-yl]-3-(tetrahydro-furan-2-ylmethyl)-urea]
11 | 8.70 | O=C(NC1CCCCC1)N[C@H]1CO[C@H]2[C@@H]1OC[C@@H]2Oc1cccc(N2CCOCC2)c1 [Example 100, 1-Cyclohexyl-3-[(3S,3aR,6S,6aS)-6-(3-morpholin-4-yl-phenoxy)-hexa-hydro-furo[3,2-b]furan-3-yl]-urea]
12 | 7.14 | O=C(Nc1ccc2c(c1)CCC2)N[C@H]1CO[C@H]2[C@@H]1OC[C@@H]2C#Cc1ccsc1 [Example 310, 1-Indan-5-yl-3-((3S,3aR,6S,6aR)-6-thiophen-3-ylethynyl-hexahydro-furo[3,2-b]furan-3-yl)-urea]
13 | 7.01 | O=C(Nc1ccc(F)cc1)NC1COC2C(C=Cc3ccccc3)COC12 [Example 328, 1-(4-Fluoro-phenyl)-3-[(3S,3aR,6R)-6-((S)-(Z)-styryl)-hexahydro-furo[3,2-b]furan-3-yl]-urea]
14 | 9.00 | Cc1ncccc1O[C@H]1CO[C@H]2[C@@H]1OC[C@@H]2NC(=O)NC1CC(C)(C)CC(C)(C)C1 [Example 273, 1-[(3S,3aR,6S,6aS)-6-(2-Methyl-pyridin-3-yloxy)-hexahydro-furo[3,2-b]furan-3-yl]-3-(3,3,5,5-tetramethyl-cyclohexyl)-urea]
15 | 7.37 | Cc1nn(C(C)C)cc1NC(=O)N[C@H]1CO[C@H]2[C@@H]1OC[C@@H]2Oc1cccnc1C [Example 225, 1-(1-Isopropyl-3-methyl-1H-pyrazol-4-yl)-3-[(3S,3aR,6S,6aS)-6-(2-methyl-pyridin-3-yloxy)-hexahydro-furo[3,2-b]furan-3-yl]-urea]
16 | 6.57 | Cc1ncccc1O[C@H]1CO[C@H]2[C@@H]1OC[C@@H]2NC(=O)NC(C)(C)C(F)(F)F [Example 232, 1-[(3S,3aR,6S,6aS)-6-(2-Methyl-pyridin-3-yloxy)-hexahydro-furo[3,2-b]furan-3-yl]-3-(2,2,2-trifluoro-1,1-dimethyl-ethyl)-urea]

Row | pIC50 | SMILES
17 | 7.60 | Cc1ncccc1O[C@H]1CO[C@H]2[C@@H]1OC[C@@H]2NC(=O)NC1CC(C)CCC1C(C)C (stereo partly drawn) [Example 263, 1-(2-Isopropyl-5-methyl-cyclohexyl)-3-[(3S,3aR,6S,6aS)-6-(2-methyl-pyridin-3-yloxy)-hexahydro-furo[3,2-b]furan-3-yl]-urea]
18 | 5.72 | Cc1ncccc1O[C@H]1CO[C@H]2[C@@H]1OC[C@@H]2NC(=O)NCC1CN(C)CCO1 (stereo partly drawn) [Example 219, 1-(4-Methyl-morpholin-2-ylmethyl)-3-[(3S,3aR,6S,6aS)-6-(2-methyl-pyridin-3-yloxy)-hexahydro-furo[3,2-b]furan-3-yl]-urea]
19 | 5.94 | Cc1ncccc1O[C@H]1CO[C@H]2[C@@H]1OC[C@@H]2NC(=O)NC1(c2cccc(F)c2)CCCC1 [Example 229, 1-[1-(3-Fluoro-phenyl)-cyclopentyl]-3-[(3S,3aR,6S,6aS)-6-(2-methyl-pyridin-3-yloxy)-hexahydro-furo[3,2-b]furan-3-yl]-urea]
20 | 7.60 | Cc1ncc(O[C@H]2CO[C@H]3[C@@H]2OC[C@@H]3NC(=O)NC2CCCCC2)cn1 [Example 41, 1-Cyclohexyl-3-[(3S,3aR,6S,6aS)-6-(2-methyl-pyrimidin-5-yloxy)-hexa-hydro-furo[3,2-b]furan-3-yl]-urea]
21 | 8.30 | Cc1ncccc1O[C@H]1CO[C@H]2[C@@H]1OC[C@@H]2NC(=O)NC1CCC(F)(F)CC1 [Example 89, 1-(4,4-difluoro-cyclohexyl)-3-[(3S,3aR,6S,6aS)-6-(2-methyl-pyridin-3-yloxy)-hexahydro-furo[3,2-b]furan-3-yl]-urea]
22 | 5.58 | Cc1ncccc1O[C@H]1CO[C@H]2[C@@H]1OC[C@@H]2NC(=O)NC1CCCNC1 (stereo partly drawn) [Example 82, 1-[(3S,3aR,6S,6aS)-6-(2-methyl-pyridin-3-yloxy)-hexahydro-furo[3,2-b]furan-3-yl]-3-piperidin-3-yl-urea; hydrochloride]
23 | 7.23 | O=C(Nc1ccccc1-c1ccccc1)N[C@H]1CO[C@H]2[C@@H]1OC[C@@H]2C#Cc1ccsc1 [Example 307, 1-Biphenyl-2-yl-3-((3S,3aR,6S,6aR)-6-thiophen-3-ylethynyl-hexahydro-furo[3,2-b]furan-3-yl)-urea]
24 | 9.00 | COc1ccc(O[C@H]2CO[C@H]3[C@@H]2OC[C@@H]3NC(=O)NC2CCCCC2)cc1 [Example 18, 1-Cyclohexyl-3-[(3S,3aR,6S,6aS)-6-(4-methoxy-phenoxy)-hexahydro-furo[3,2-b]furan-3-yl]-urea]
25 | 6.95 | Cc1cccc(CNC(=O)NC2COC3C(CCc4ccccc4)COC23)c1 [Example 359, 1-(3-Methyl-benzyl)-3-[(3S,3aR,6R)-6-((S)-phenethyl)-hexahydro-furo[3,2-b]furan-3-yl]-urea]
26 | 7.60 | O=C(Nc1ccccc1)NC1COC2C(CCc3ccsc3)COC12 [Example 363, 1-Phenyl-3-[(3S,3aR,6R)-6-((S)-2-thiophen-3-yl-ethyl)-hexahydro-furo[3,2-b]furan-3-yl]-urea]
27 | 8.52 | Cn1ccnc1-c1ccc(O[C@H]2CO[C@H]3[C@@H]2OC[C@@H]3NC(=O)NC2CCCCC2)cc1 [Example 32, 1-Cyclohexyl-3-{(3S,3aR,6S,6aS)-6-[4-(1-methyl-1H-imidazol-2-yl)-phenoxy]-hexahydro-furo[3,2-b]furan-3-yl}-urea]
28 | 8.00 | Cc1ncccc1OC1COC2C(NC(=O)NC3CC4CCC3(C)C4(C)C)COC12 [Example 231, 1-[(2R,3aS,5S,6S)-6-(2-Methyl-pyridin-3-yloxy)-hexahydro-furo[3,2-b]furan-3-yl]-3-((1R,4R)-1,7,7-trimethyl-bicyclo[2.2.1]hept-2-yl)-urea]
29 | 7.72 | Cc1ncccc1OC1COC2C(NC(=O)NC34CC5(C)CC(C)(CC(O)(C5)C3)C4)COC12 [Example 230, 1-((1R,3S,5R,7S)-3-Hydroxy-5,7-dimethyl-adamantan-1-yl)-3-[(3S,3aR,6S,6aS)-6-(2-methyl-pyridin-3-yloxy)-hexahydro-furo[3,2-b]furan-3-yl]-urea]
30 | 7.34 | O=C(Nc1ccc(F)cc1)NC1COC2C(C#Cc3ccccc3)COC12 [Example 292, 1-(4-Fluoro-phenyl)-3-[(3S,3aR,6R)-6-((S)-phenylethynyl)-hexahydro-furo[3,2-b]furan-3-yl]-urea]
31 | 9.00 | COC(=O)c1cncc(O[C@H]2CO[C@H]3[C@@H]2OC[C@@H]3NC(=O)NC2CCCCC2)c1 [Example 111, 5-[(3S,3aS,6S,6aR)-6-(3-Cyclohexyl-ureido)-hexahydro-furo[3,2-b]furan-3-yloxy]-nicotinic acid methyl ester]
